Measured values as given in US20200339691A1, “PROTEINACEOUS MOLECULES AND USES THEREFOR” (priority 2018, published 2020).
Where a SMILES comes first, the peptide text is derived from it. The star is where a group is joined. Myristoyl = CCCCCCCCCCCCCC(=O)*

What was measured:
[1] = system: CD44^hiCD24^lo CSCs in MDA-MB-231 cells; test: FACS analysis of CD44^hiCD24^lo cancer stem cells in MDA-MB-231 cells treated with P1 analogues; assay type: cell-based, human; settings: 50 μM peptide, 48 hours; for CD44^hiCD24^lo CSCs (%) / COI, Live Single CD44^hiCD24^lo CSCs (Cell Count): n = 1; for Average Inhibition of CSCs (%) / CD44^hiCD24^lo CSCs (%) Repeat 1 / CD44^hiCD24^lo CSCs (%) Repeat 2 / CD44^hiCD24^lo CSCs (%) Repeat 3: n = 3
Experimental: Analogues of P1 (Table 6) were designed and synthesized in accordance with the procedure of Example 5. The ability of these analogues to inhibit cancer stem cells was determined using FACS analysis on MDA-MB-231 cells, which constitutively contain approximately 90% CD44^hiCD24^lo cancer stem cells, treated with the peptides.
(§1) Non-adherent cells were removed during the washing steps.

MDA-MB-231 cells = assay type: cell-based, human; settings: 50 μM peptide, 48 hours, n = 1
From the text: as §1
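Throughout, for COI, Live Single Cells (Cell Count): live means Hoechst-negative events among single cells.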

| SMILES | Inhibition of CSCs (%) Repeat 1 [1] [%] | Inhibition of CSCs (%) Repeat 2 [1] [%] | Inhibition of CSCs (%) Repeat 3 [1] [%] | CD44^hiCD24^lo CSCs (%) [1] [%] | COI, Live Single CD44^hiCD24^lo CSCs (Cell Count) [1] | Average Inhibition of CSCs (%) [1] [%] | CD44^hiCD24^lo CSCs (%) Repeat 1 [1] [%] | CD44^hiCD24^lo CSCs (%) Repeat 2 [1] [%] | CD44^hiCD24^lo CSCs (%) Repeat 3 [1] [%] | COI (Cell Count) (MDA-MB-231 cells) | COI, Live Single Cells (Cell Count) (MDA-MB-231 cells) | COI, Single (Cell Count) (MDA-MB-231 cells) | Total Cell Count (MDA-MB-231 cells) |
| --- | --- | --- | --- | --- | --- | --- | --- | --- | --- | --- | --- | --- | --- |
| CCCCCCCCCCCCCC(=O)N[C@H](C(=O)N[C@@H](Cc1ccccc1)C(=O)N[C@H](C(=O)N[C@@H](Cc1ccccc1)C(=O)N[C@@H](CCCNC(=N)N)C(=O)N[C@@H](CC(C)C)C(=O)N[C@@H](CCCNC(=N)N)C(=O)N[C@@H](CCCCN)C(=O)NCC(=O)N[C@@H](CCCNC(=N)N)C(=O)N[C@@H](CCSC)C(=O)N[C@@H](CCSC)C(=O)N[C@@H](CC(=O)O)C(=O)N[C@H](C(=O)N[C@@H](CCCCN)C(=O)N[C@@H](C)C(N)=O)C(C)C)[C@@H](C)CC)[C@@H](C)O [Peptide 2815317, Myristoyl-TFIFRLRKGRMMDVKA-NH2] (Myristoyl-TFIFRLRKGRMMDVKA-NH2) | 47.53 | 46.46 | 63.38 | 40.91 | 18 | 52.46 | 47.02 | 48.03 | 32.86 | 88 | 44 | 79 | 8821 |
| CCCCCCCCCCCCCC(=O)N[C@@H](CC(C)C)C(=O)N[C@H](C(=O)N[C@@H](Cc1ccccc1)C(=O)N[C@H](C(=O)N[C@@H](Cc1ccccc1)C(=O)N[C@@H](CCCNC(=N)N)C(=O)N[C@@H](CC(C)C)C(=O)N[C@@H](CCCNC(=N)N)C(=O)N[C@@H](CCCCN)C(=O)NCC(=O)N[C@@H](CCCNC(=N)N)C(=O)N[C@@H](CCSC)C(=O)N[C@@H](CCSC)C(=O)N[C@@H](CC(=O)O)C(=O)N[C@H](C(=O)N[C@@H](CCCCN)C(=O)N[C@@H](CCC(=O)O)C(N)=O)C(C)C)[C@@H](C)CC)[C@@H](C)O [Peptide 2853845, Myristoyl-LTFIFRLRKGRMMDVKE-NH2] (Myristoyl-LTFIFRLRKGRMMDVKE-NH2) | 15.69 | 19.72 | 17.64 | 65.10 | 2612 | 17.69 | 75.56 | 72.02 | 73.91 | 4600 | 4012 | 4111 | 5598 |
| CCCCCCCCCCCCCC(=O)N[C@H](C(=O)N[C@@H](Cc1ccccc1)C(=O)N[C@H](C(=O)N[C@@H](C)C(=O)N[C@@H](CCCNC(=N)N)C(=O)N[C@@H](CC(C)C)C(=O)N[C@@H](CCCNC(=N)N)C(=O)N[C@@H](CCCCN)C(=O)NCC(=O)N[C@@H](CCCNC(=N)N)C(=O)N[C@@H](CCSC)C(=O)N[C@@H](CCSC)C(=O)N[C@@H](CC(=O)O)C(=O)N[C@H](C(=O)N[C@@H](CCCCN)C(=O)N[C@@H](CCCCN)C(N)=O)C(C)C)[C@@H](C)CC)[C@@H](C)O [Peptide 2815305, Myristoyl-TFIARLRKGRMMDVKK-NH2] (Myristoyl-TFIARLRKGRMMDVKK-NH2) | 7.19 | 10.83 | 2.94 | 93.18 | 82 | 6.99 | 83.18 | 80.00 | 87.10 | 129 | 88 | 121 | 2870 |
| CCCCCCCCCCCCCC(=O)N[C@H](C(=O)N[C@@H](Cc1ccccc1)C(=O)N[C@H](C(=O)N[C@@H](Cc1ccccc1)C(=O)N[C@@H](CCCNC(=N)N)C(=O)N[C@@H](CC(C)C)C(=O)N[C@@H](CCCNC(=N)N)C(=O)N[C@@H](CCCCN)C(=O)NCC(=O)N[C@@H](CCCNC(=N)N)C(=O)N[C@@H](CCSC)C(=O)N[C@@H](C)C(=O)N[C@@H](CC(=O)O)C(=O)N[C@H](C(=O)N[C@@H](CCCCN)C(=O)N[C@@H](CCCCN)C(N)=O)C(C)C)[C@@H](C)CC)[C@@H](C)O [Peptide 2815313, Myristoyl-TFIFRLRKGRMADVKK-NH2] (Myristoyl-TFIFRLRKGRMADVKK-NH2) | 22.34 | 23.02 | 27.96 | 61.54 | 80 | 24.44 | 69.60 | 69.06 | 64.65 | 165 | 130 | 148 | 8909 |
| CCCCCCCCCCCCCC(=O)N[C@@H](CC(C)C)C(=O)N[C@H](C(=O)N[C@@H](Cc1ccccc1)C(=O)N[C@H](C(=O)N[C@@H](Cc1ccccc1)C(=O)N[C@@H](CCCNC(=N)N)C(=O)N[C@@H](CC(C)C)C(=O)N[C@@H](CCCNC(=N)N)C(=O)N[C@@H](CCCCN)C(=O)NCC(=O)N[C@@H](CCCNC(=N)N)C(=O)N[C@@H](CCSC)C(=O)N[C@@H](CCSC)C(=O)N[C@@H](CC(=O)O)C(=O)N[C@H](C(=O)N[C@@H](CCCCN)C(=O)N[C@@H](CCCNC(=N)N)C(N)=O)C(C)C)[C@@H](C)CC)[C@@H](C)O [Peptide 2853844, Myristoyl-LTFIFRLRKGRMMDVKR-NH2] (Myristoyl-LTFIFRLRKGRMMDVKR-NH2) | 80.13 | 89.73 | 78.08 | 10.61 | 7 | 82.65 | 17.81 | 9.21 | 19.67 | 147 | 66 | 101 | 2094 |
| CCCCCCCCCCCCCC(=O)N[C@@H](CC(C)C)C(=O)N[C@H](C(=O)N[C@@H](Cc1ccccc1)C(=O)N[C@H](C(=O)N[C@@H](Cc1ccccc1)C(=O)N[C@@H](CCCNC(=N)N)C(=O)N[C@@H](CC(C)C)C(=O)N[C@@H](CCCNC(=N)N)C(=O)N[C@@H](CCCCN)C(=O)NCC(=O)N[C@@H](CCCNC(=N)N)C(=O)N[C@@H](CCSC)C(=O)N[C@@H](CCCCN)C(=O)N[C@@H](CC(=O)O)C(=O)N[C@H](C(=O)N[C@@H](CCCCN)C(=O)N[C@@H](CCCCN)C(N)=O)C(C)C)[C@@H](C)CC)[C@@H](C)O [Peptide 2853835, Myristoyl-LTFIFRLRKGRMKDVKK-NH2] (Myristoyl-LTFIFRLRKGRMKDVKK-NH2) | 90.70 | 90.45 | 89.87 | 2.50 | 1 | 90.34 | 8.33 | 8.57 | 9.09 | 1733 | 40 | 1292 | 8580 |
| CCCCCCCCCCCCCC(=O)N[C@@H](CC(C)C)C(=O)N[C@H](C(=O)N[C@@H](Cc1ccccc1)C(=O)N[C@H](C(=O)N[C@@H](Cc1ccccc1)C(=O)N[C@@H](CCCNC(=N)N)C(=O)N[C@@H](CCCCN)C(=O)N[C@@H](CCCNC(=N)N)C(=O)N[C@@H](CCCCN)C(=O)NCC(=O)N[C@@H](CCCNC(=N)N)C(=O)N[C@@H](CCSC)C(=O)N[C@@H](CCSC)C(=O)N[C@@H](CC(=O)O)C(=O)N[C@H](C(=O)N[C@@H](CCCCN)C(=O)N[C@@H](CCCCN)C(N)=O)C(C)C)[C@@H](C)CC)[C@@H](C)O [Peptide 2853822, Myristoyl-LTFIFRKRKGRMMDVKK-NH2] (Myristoyl-LTFIFRKRKGRMMDVKK-NH2) | 81.93 | 81.80 | 81.03 | 4.78 | 31 | 81.59 | 16.19 | 16.33 | 17.02 | 768 | 648 | 657 | 3204 |
| CCCCCCCCCCCCCC(=O)N[C@@H](C)C(=O)N[C@@H](Cc1ccccc1)C(=O)N[C@H](C(=O)N[C@@H](Cc1ccccc1)C(=O)N[C@@H](CCCNC(=N)N)C(=O)N[C@@H](CC(C)C)C(=O)N[C@@H](CCCNC(=N)N)C(=O)N[C@@H](CCCCN)C(=O)NCC(=O)N[C@@H](CCCNC(=N)N)C(=O)N[C@@H](CCSC)C(=O)N[C@@H](CCSC)C(=O)N[C@@H](CC(=O)O)C(=O)N[C@H](C(=O)N[C@@H](CCCCN)C(=O)N[C@@H](CCCCN)C(N)=O)C(C)C)[C@@H](C)CC [Peptide 2815302, Myristoyl-AFIFRLRKGRMMDVKK-NH2] (Myristoyl-AFIFRLRKGRMMDVKK-NH2) | 89.69 | 91.79 | 94.73 | 19.63 | 86 | 92.07 | 9.24 | 7.36 | 4.73 | 516 | 438 | 466 | 5074 |
